Measured values taken from PMC7716246 (ACS chemical neuroscience, 2020).
Read-outs that look alike come from different tables or passages of the source.

Legend:
amyloid plaques = assay type: binding, 5xFAD transgenic mice; conditions: brain sections of 7 month old 5xFAD mice
Aβ42 peptide [1] = molecular target: T1, Aβ42 peptide (Homo sapiens, UniProt P05067); experiment: Inhibition of Aβ42 aggregation, ThT fluorescence; assay type: biochemical; conditions: in presence and absence of Cu^2+ or Zn^2+; [Aβ] = [M^2+] = [AMF] = 25 μM, 37 °C, 24 h
[2] = Cu^2+-induced ascorbate consumption assay; assay type: biochemical; conditions: [Cu^2+] = 10 μM, [AMF] = 24 μM, [ascorbate] = 100 μM
Aβ42 fibrils [3] = molecular target: T2, Aβ42 fibrils (Homo sapiens, UniProt P05067); assay type: biochemical; conditions: 25 μM, 37 °C; for Disaggregation of Aβ42 aggregates (TEM, native gel/Western blot): 24 h then 24 h with AMF
Aβ42 fibrils [4] = molecular target: T2, Aβ42 fibrils; experiment: Disaggregation of preformed Aβ42 fibrils, ThT fluorescence; assay type: biochemical; conditions: in the absence and presence of Cu^2+; [Aβ] = [M^2+] = [AMF] = 25 μM, additional 24 h at 37 °C
[5] = UV-vis Cu^2+ binding and Job's plot analysis of AMF:Cu^2+ stoichiometry; assay type: physicochemical
Aβ fibrils (Aβ40) = Aβ fibrils (Aβ40) (Homo sapiens, UniProt P05067); experiment: Thioflavin T; assay type: binding
Aβ42 peptide [6] = molecular target: T1, Aβ42 peptide; experiment: Inhibition of Aβ42 aggregation, TEM and native gel electrophoresis/Western blot; assay type: biochemical; conditions: 37 °C, 24 h; for Aβ42 aggregates observed by TEM: [Aβ42] = [M^2+] = [AMF] = 25 μM; for Aβ42 aggregates by native gel/Western blot: 25 μM
[7] = 2:1 Metal:AMF mixture, [M^2+]tot = 25 μM, [AMF]tot = 50 μM
[8] = pH 7.4; 2:1 Metal:AMF mixture, [M^2+]tot = 25 μM, [AMF]tot = 50 μM

T1 sequence (P05067 672-713 limits assumed): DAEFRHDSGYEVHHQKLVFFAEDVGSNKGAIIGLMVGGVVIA
T2 sequence (P05067 672-713 limits assumed): as above
Chain of Aβ fibrils (Aβ40) (P05067 672-711 limits assumed): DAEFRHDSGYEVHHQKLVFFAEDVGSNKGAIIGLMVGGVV

Disaggregation of Aβ42 aggregates (TEM, native gel/Western blot) (Aβ42 fibrils [3]; Zn^2+-incubated Aβ42 amorphous aggregates): decreases to some extent | Break in Job's plot ([5]; AMF and Cu^2+ in EtOH-PBS (1:10)): 0.7 mole fraction of Cu | Cu bound per AMF (stoichiometry) ([5]; from Job's plot): at least 2 equiv | Ki (Aβ fibrils (Aβ40)): 287 ± 20 nM | pCu (pM = −log[M]free) ([7]; pH 6.6): 9.62 | pCu (pM = −log[M]free) ([7]; pH 7.4): 10.44 | pZn (pM = −log[M]free) [8]: 8.15
SMILES: O=c1cc(-c2ccc(O)c(-c3c(O)cc(O)c4c(=O)cc(-c5ccc(O)cc5)oc34)c2)oc2cc(O)cc(O)c12 [AMF, amentoflavone]
Fluorescence intensity of stained brain sections (amyloid plaques; 25 μM): strong fluorescent intensity | Pearson's correlation coefficient, colocalization with HJ3.4 immunofluorescence (amyloid plaques; [AMF] = [Cu^2+] = 25 μM, [HJ3.4] = 1 μg/mL): 0.65 | Effect on Aβ42 fibrillization (ThT fluorescence) (Aβ42 peptide [1]): dramatically reduced the fibrillization of Aβ42 | Effect on ascorbate consumption ([2]; AMF added to the Cu^2+-Aβ42-ascorbate solution, [Aβ42] = 12 μM): efficiently reduce the consumption of ascorbate | Effect on ascorbate consumption ([2]; premixed AMF-Cu^2+ complex, with monomeric Aβ42 12 μM): significant inhibition of the ascorbate consumption | Disaggregation of Aβ42 aggregates (TEM, native gel/Western blot) (Aβ42 fibrils [3]; Cu^2+-incubated Aβ42 aggregates): reduction in the amount of both large aggregates and smaller Aβ42 oligomers | Disaggregation of Aβ42 fibrils (TEM, native gel/Western blot) (Aβ42 fibrils [3]; no metal ions, 24 h fibrilization then 24 h with AMF): disaggregates the Aβ42 fibrils efficiently | Disaggregation of preformed Aβ42 fibrils (ThT fluorescence) (Aβ42 fibrils [4]): efficient at reducing the amount of Aβ42 fibrils | Aβ42 aggregates observed by TEM (Aβ42 peptide [6]; in the absence and presence of Cu^2+): only small amorphous aggregates were observed | Aβ42 aggregates by native gel/Western blot (Aβ42 peptide [6]; in the presence of Cu^2+): the amount of soluble Aβ42 oligomers is also reduced | Aβ42 aggregates by native gel/Western blot (Aβ42 peptide [6]; in the presence of Zn^2+): a wide range of various-size aggregates is formed | Aβ42 aggregates observed by TEM (Aβ42 peptide [6]; in the presence of Zn^2+): a range of amorphous and fibrillar aggregates is formed | Aβ42 aggregates by native gel/Western blot (Aβ42 peptide [6]; no metal ions): dramatically reduces the amount of large Aβ42 aggregates
